Measurements taken from ChEMBL document CHEMBL3822357, “New Atglistatin closely related analogues: Synthesis and structure-activity relationship towards adipose triglyceride lipase inhibition” (Eur J Med Chem, 2016).
pIC50: −log10 of the molar value. The source made the active and inactive calls. The rule behind the calls is not given here.

Key:
[1] = molecular target: T1, Patatin-like phospholipase domain-containing protein 2 (Mus musculus) (UniProt Q8BJ56); assay: Inhibition of ATGL in mouse 3T3L1 cells assessed as inhibition of isoproterenol-stimulated lipolysis by measuring reduction in non-esterified fatty acid release in media at 20 uM preincubated for 4 hrs followed by isoproterenol addition measured after 1 hr by colorimetric assay; assay type: cell-based; settings: 3T3-L1
T1 sequence (whole entry): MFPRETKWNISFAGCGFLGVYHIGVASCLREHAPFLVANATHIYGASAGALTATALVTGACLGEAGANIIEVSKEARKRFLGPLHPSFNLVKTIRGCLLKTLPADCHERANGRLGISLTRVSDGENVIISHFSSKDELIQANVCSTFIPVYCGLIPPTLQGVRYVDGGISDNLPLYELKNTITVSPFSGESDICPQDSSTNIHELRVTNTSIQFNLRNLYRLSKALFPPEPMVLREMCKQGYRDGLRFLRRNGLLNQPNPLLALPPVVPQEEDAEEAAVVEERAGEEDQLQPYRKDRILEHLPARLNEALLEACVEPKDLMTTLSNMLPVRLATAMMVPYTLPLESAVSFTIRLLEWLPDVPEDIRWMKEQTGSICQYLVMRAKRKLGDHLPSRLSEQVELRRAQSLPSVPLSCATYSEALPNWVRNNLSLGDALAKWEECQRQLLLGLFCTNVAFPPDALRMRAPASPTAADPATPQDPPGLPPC

[2] = molecular target: T1, Patatin-like phospholipase domain-containing protein 2 (Mus musculus); assay: Inhibition of ATGL in mouse 3T3L1 cells assessed as inhibition of isoproterenol-stimulated lipolysis by measuring reduction in glycerol release in media at 20 uM preincubated for 4 hrs followed by isoproterenol addition measured after 1 hr by colorimetric assay; assay type: cell-based; settings: 3T3-L1
[3] = molecular target: T2, Patatin-like phospholipase domain-containing protein 2 (Homo sapiens, UniProt Q96AD5); assay: Inhibition of ATGL (unknown origin) overexpressed in Escherichia coli XL-1 cells using [9,10-3H(N)]triolein as substrate incubated for 60 mins by liquid scintillation counting method
T2 sequence (Q96AD5 whole entry): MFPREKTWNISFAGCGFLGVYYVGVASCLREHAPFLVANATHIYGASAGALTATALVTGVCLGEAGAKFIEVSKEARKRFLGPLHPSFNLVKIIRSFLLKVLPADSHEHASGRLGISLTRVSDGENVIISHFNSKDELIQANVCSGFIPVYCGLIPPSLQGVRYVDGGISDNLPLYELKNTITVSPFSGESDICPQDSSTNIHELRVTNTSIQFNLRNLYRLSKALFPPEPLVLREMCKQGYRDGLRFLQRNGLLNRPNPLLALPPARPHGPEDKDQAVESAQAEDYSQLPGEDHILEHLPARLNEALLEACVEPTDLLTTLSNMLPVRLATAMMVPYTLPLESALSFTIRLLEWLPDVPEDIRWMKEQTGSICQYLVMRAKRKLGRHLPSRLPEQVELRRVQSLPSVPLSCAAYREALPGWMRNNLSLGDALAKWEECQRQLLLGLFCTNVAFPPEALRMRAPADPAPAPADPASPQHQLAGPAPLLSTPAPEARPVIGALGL

SMILES	inhibition [1]	inhibition [2]	pIC50 [3]
CN(C)c1cccc(N(C)C)c1	inactive	inactive	–
CN(C)C(=O)Nc1ccc(-c2ccccc2)cc1	–	inactive	–
CN(C)C(=O)Nc1cccc(-c2ccc(N(C)C)cc2)c1	Active	–	6.15
CN(C)c1cccc(-c2cccc(N(C)C)c2)c1	inactive	inactive	–
CN(C)C(=O)Nc1ccc(-c2ccc(NC(=O)N(C)C)cc2)cc1	inactive	inactive	–
CN(C)C(=O)Nc1ccc(-c2cccc(N(C)C)c2)cc1	inactive	inactive	–
CN(C)C(=O)Nc1ccc(NC(=O)N(C)C)cc1	inactive	inactive	–
CN(C)C(=O)Nc1cccc(-c2cccc(NC(=O)N(C)C)c2)c1	inactive	inactive	–
CN(C)c1ccc(N(C)C)cc1	inactive	inactive	–
CN(C)C(=O)Nc1ccc(-c2ccc(N)cc2)cc1	–	inactive	–
CN(C)C(=O)Nc1cccc(N(C)C)c1	inactive	inactive	–
CN(C)C(=O)Nc1cccc(-c2cccc(N(C)C)c2)c1	inactive	inactive	–
CN(C)C(=O)Nc1ccc(-c2ccc(N(C)C)cc2)cc1	inactive	inactive	–
CN(C)c1ccc(-c2ccccc2)cc1	inactive	inactive	–
CN(C)C(=O)Nc1cccc(-c2ccccc2)c1	Active	Active	–
CN(C)c1cccc(-c2ccccc2)c1	inactive	inactive	–
CN(C)C(=O)Nc1ccc(N(C)C)cc1	–	inactive	–
CN(C)c1ccc(-c2ccc(N(C)C)cc2)cc1	inactive	inactive	–
